Measurements reported in patent publication US7524886B2, “L-(−)-moprolol L-(+)-tartrate” (Aziende Chimiche Riunite Angelini Francesco A.C.R.A.F. …, priority 2004, dated 2009).

System: rabbit eye (conjunctiva, iris, cornea)
Test: Ocular tolerability (Draize) in rabbits
Format: in vivo, rabbits (New Zealand White)
Method: Two aqueous solutions were used.
The first contained 1% by weight of L-(−)-moprolol hydrochloride (corresponding to 0.87% by weight of L-(−)-moprolol). The second contained 1.14% by weight of L-(−)-moprolol L-(+)-tartrate (2:1) (corresponding to 0.87% by weight of L-(−)-moprolol).
12 male rabbits (New Zealand White) with an average weight of 2 kg and an average age of ten months were used, divided into two groups of six rabbits each. The first group was treated with 0.1 ml of the first test solution three times a day for fifteen days. The second group was treated with 0.1 ml of the second test solution three times a day for fifteen days.
The tolerability was evaluated according to J. Draize et al., Pharmacol. Exp. Ther., 83, 377-390 (1944).

[1] = Draize score, male rabbits, 0.1 ml aqueous solution (0.87% by weight L-(−)-moprolol) three times a day for fifteen days

| Structure (SMILES) | Conjunctiva Lachrymation [1] | Conjunctiva Reddening [1] | Conjunctiva Swelling [1] | Cornea Area of the cornea affected by opacity [1] | Cornea Opacity [1] | Iris [1] | local tolerability (rabbit, in vivo) | Total Score (sum of Draize scores, male rabbits, 0.1 ml aqueous solution (0.87% by weight L-(−)-moprolol) three times a day for fifteen days) | Conjunctiva Lachrymation (rabbit, in vivo) | Conjunctiva Reddening (rabbit, in vivo) | Conjunctiva Swelling (rabbit, in vivo) | Cornea Area of the cornea affected by opacity (rabbit, in vivo) | Cornea Opacity (rabbit, in vivo) | Iris (rabbit, in vivo) | Total Score (rabbit, in vivo) |
| --- | --- | --- | --- | --- | --- | --- | --- | --- | --- | --- | --- | --- | --- | --- | --- |
| COc1ccccc1OC[C@@H](O)CNC(C)C.COc1ccccc1OC[C@@H](O)CNC(C)C.O=C(O)C(O)C(O)C(=O)O [L-(−)-moprolol L-(+)-tartrate, L-(−)-moprolol L-(+)-tartrate (2:1)] | 1 | 0 | 0 | 0 | 0 | 0 | better local tolerability | 1 |  |  |  |  |  |  |  |
| COc1ccccc1OC[C@@H](O)CNC(C)C.Cl [L-(−)-moprolol hydrochloride, reference compound] |  |  |  |  |  |  |  |  | 2 | 1 | 2 | 0 | 0 | 0 | 5 |
